Reference: PubChem BioAssay (NCI)
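Growth conditions: 96-well plates. Treatment: test compound, 48 hours, 5 concentrations. Analysis: linear interpolation between bracketing concentrations; unreached endpoints set to highest concentration. Here, GI50 denotes the concentration required for 50% inhibition of growth. At the TGI there is no net growth.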

Experiments:
Experiment in all cases: NCI anticancer screen, dose series, 48 h
A498 renal = test system: A498 renal
IGROV1 ovarian = test system: IGROV1 ovarian
SN12C renal = test system: SN12C renal
HL-60(TB) leukemia = test system: HL-60(TB) leukemia
ACHN renal = test system: ACHN renal
COLO 205 colon = test system: COLO 205 colon
OVCAR-5 ovarian = test system: OVCAR-5 ovarian
HCT-116 colon = test system: HCT-116 colon
NCI-H522 lung = test system: NCI-H522 lung
MDA-MB-231 breast = test system: MDA-MB-231 breast

SMILES	TGI (A498 renal) [µM]	TGI (IGROV1 ovarian) [µM]	TGI (SN12C renal) [µM]	TGI (HL-60(TB) leukemia) [µM]	TGI (ACHN renal) [µM]	TGI (COLO 205 colon) [µM]	TGI (OVCAR-5 ovarian) [µM]	TGI (HCT-116 colon) [µM]	TGI (NCI-H522 lung) [µM]	TGI (MDA-MB-231 breast) [µM]	GI50 (IGROV1 ovarian) [µM]	GI50 (MDA-MB-231 breast) [µM]	GI50 (SN12C renal) [µM]	GI50 (HL-60(TB) leukemia) [µM]	GI50 (ACHN renal) [µM]	GI50 (COLO 205 colon) [µM]	GI50 (OVCAR-5 ovarian) [µM]	GI50 (NCI-H522 lung) [µM]	GI50 (A498 renal) [µM]	GI50 (HCT-116 colon) [µM]
O=C(O)/C=C/C(=O)N1C/C(=C\c2ccccc2)C(=O)/C(=C/c2ccccc2)C1	34.5	31.9	15.5	26.6	20.9	24.3	31.8	3.48	4.94											
CC12Oc3ccc4ccccc4c3CC1Cc1c(ccc3ccccc13)O2 (stereo unspecified)				> 100	> 100	> 100	> 100	> 100	> 100											
O=C(O)CCSC(=O)Nc1ccc(N=Nc2ccccc2)cc1	> 100	> 100	> 100	> 100	> 100	> 100	> 100	> 100												
O=C(Nc1ccc(Cl)c(Cl)c1)OCCN1c2ccccc2Sc2ccccc21		> 10	> 10	> 10	> 10	> 10	> 10	> 10	> 10	> 10										
COc1cc2c3c(n(CCCN=[N+]=[N-])c(=O)c2cc1OC)-c1ccc(N(C)C)cc1C3=O		> 100	> 100	> 100	> 100	> 100	> 100		> 100	> 100	> 100	> 100	> 100	> 100	> 100	> 100	> 100	> 100		
CN(C)C(=S)/N=c1\ss/c(=N\S(=O)(=O)c2ccccc2)n1N(C)C	> 100	> 100	> 100	> 100	> 100	> 100		> 100	37.8											
NCCSCCc1ccccc1	> 100	> 100	> 100		> 100	> 100	> 100	> 100	> 100	> 100										
c1ccc2c(c1)C1=NCCN1c1ccccc1-2	8.82	17.2	9.92	5.17	7.36	2.77	15.2	10.4	3.13											
CCC(Oc1ccc(OC)c2ccccc(=O)c12)C(=O)O (stereo unspecified)	> 100	> 100	> 100	> 100	> 100	> 100	> 100	> 100	> 100											
O=C(NS(=O)(=O)c1ccccc1)C(Cc1ccccc1)C(Cc1ccccc1)C(=O)NS(=O)(=O)c1ccccc1 (stereo unspecified)	> 100	> 100	> 100	> 100	> 100	> 100	> 100	> 100	> 100											
CN1CC(=O)N(C)c2nc[nH]c2C1=O	> 100	> 100	> 100	> 100	> 100	> 100	> 100													
COC(=O)CCC(=O)NC1C2CC3CC(C2)CC1C3 (stereo unspecified)	> 100	> 100	> 100	> 100	> 100	> 100	> 100	> 100	> 100											
COC1=C2CC(C)CC(OC)C(O)C(C)/C=C(\C)C(OC(N)=O)C(OC)/C=C\C=C(/C)C(=O)NC(=C(/C=N/N3CCCCC3)C1=O)C2=O (stereo unspecified)	63.8	27	15.5	4.32	28.8	8.25	34.5	9.48	7.87											
Cc1cccc2nc3cccc(C(=O)NCCN(C)C)c3nc12	1.35	15.5	3.15	12	5.8	3.14	5.97	10.8												
O=C1OC(OCC#CCOC2OC(=O)C(Cl)=C2Cl)C(Cl)=C1Cl (stereo unspecified)		29.9	32.5		30.5		33.2	21.8	3.72											
O=C1CC(c2ccc(Cl)cc2)Oc2ccccc21 (stereo unspecified)	73	40.8		34.1	> 100	89.1		> 100		53.9										
O=C1C=CC(O)C2C1CC13SSC4(CC5C(=O)C=CC(O)C5N4C1=O)C(=O)N23 (stereo unspecified)	6.26	3.43	0.743		0.835	1.04	0.571		0.544	0.947										
Cc1ccccc1-n1c(C)nc(-c2ccccc2)cc1=O	> 100	> 100	> 100	> 100	> 100	> 100	> 100	> 100	> 100											
c1ccc(CNc2nc(Nc3ccccc3)nc3ccccc23)cc1	5.7	7.44	3.7		4.16	3.77	4.19	3.3	3.23	3.12	2.59	1.58	1.73		1.87	1.89	1.86	1.45	1.29	1.71
O=C1C=CC(CC(=O)c2ccc3ccccc3c2)O1 (stereo unspecified)	46.1	65.2	36	37.3	> 100	31.9	41.5	32.3												
C[C@H]1C(=O)CC[C@]2(C)CCC(C(C)(C)O)CC12O (stereo partly specified)	> 100	> 100	> 100	> 100	> 100	> 100	> 100	> 100	> 100											
CN(/N=N/c1nc(OCc2ccccc2)c2[nH]cnc2n1)C(=O)Oc1ccc([N+](=O)[O-])cc1		31.2		> 50		29.7	> 50	16		18.6	12.2	5.78		11.9		10.2	11.5			8.68

SMILES	TGI (A498 renal) [µM]	TGI (IGROV1 ovarian) [µM]	TGI (SN12C renal) [µM]	TGI (HL-60(TB) leukemia) [µM]	TGI (ACHN renal) [µM]	TGI (COLO 205 colon) [µM]	TGI (OVCAR-5 ovarian) [µM]	TGI (HCT-116 colon) [µM]	TGI (NCI-H522 lung) [µM]	TGI (MDA-MB-231 breast) [µM]	GI50 (IGROV1 ovarian) [µM]	GI50 (MDA-MB-231 breast) [µM]	GI50 (SN12C renal) [µM]	GI50 (HL-60(TB) leukemia) [µM]	GI50 (ACHN renal) [µM]	GI50 (COLO 205 colon) [µM]	GI50 (OVCAR-5 ovarian) [µM]	GI50 (NCI-H522 lung) [µM]	GI50 (A498 renal) [µM]	GI50 (HCT-116 colon) [µM]
C=CS(=O)(=O)CCN1CC1		> 10	> 10	> 10	> 10	> 10	> 10	> 10	> 10	> 10										
O=S(=O)(C/C(=N\O)c1ccccc1)c1ccccc1	> 100	> 100	> 100	> 100	> 100	> 100	> 100	> 100	> 100											
COc1ccc(Nc2c3ccccc3nc3[nH]c4ccccc4c23)cc1		> 50	> 50	> 50	25	> 50	> 50	28	> 50	> 50	16.9	14.5	18.5	4.98	7.36	17.8	26.7	41.5		4.83
O=S(=O)(NCCNc1nccc(-c2c(-c3ccc(F)cc3)nc3sccn23)n1)c1ccccc1	> 100	32.7	> 100	61.7	> 100	> 100	> 100	14.9		> 100	2.99	16.6	6.86	16.9	1.69	2.23	81.1		5.23	2.36
C=CCCCc1ccc(C(O)CCCCCCCCCCCC)o1 (stereo unspecified)		44.9	31.4		30.4	38.6	30.4	28.9	29.7	29.8	19.5	15.6	17.2		16.8	19.6	15.9	15.3		15.5
Cc1c(Sc2ccccc2)[n+](=O)c2cc(Cl)c(Cl)cc2n1[O-]		38	> 100		41.6	> 100	> 100	59.4	57.7	> 100	15.5	35.7	> 100		20.5	49	> 100	23.6		27.4
CCCCCCC(/C=N/O)C(C)(O)CCC (stereo unspecified)	> 100	> 100	> 100	> 100	> 100	> 100	> 100	> 100	> 100											
O=C(O)C1=C(C(=O)Nc2ccc(NC(=O)C3=C(C(=O)O)C4C=CC3C4)cc2)C2C=CC1C2	> 100	> 100	> 100	> 100	> 100	> 100	> 100	> 100												
Nn1c(N=Nc2c(O)[nH]c3c(Cl)cc(Cl)cc23)n[nH]c1=S	> 100	> 100	> 100	> 100	> 100	> 100	> 100	> 100	> 100											
O=C1c2nc3n(c2C(=O)c2c1nc1n2CCC1)CCC3	29.6	24.5	14.5	> 36.6	23.9	18.5	30.7	9.22	19.5				9.48			4.13				4.29
COC(=O)C1=C(c2ccc3c(c2)OCO3)OC(c2cc(OC)c(OC)c(OC)c2)C1 (stereo unspecified)	8.04	9.53	> 100		> 100	3.98	> 100	85.4												
O=C(O)c1ccccc1NC(=O)C1CCCCC1	> 100	> 100	> 100	> 100	> 100	> 100	> 100	> 100												
COC(=O)C1=CC2OC1(C)CCC2=O (stereo unspecified)		> 100	> 100	80.4	> 100	> 100	> 100	> 100	> 100											
COC(=O)[C@@H](C)C[C@H](Cc1ccccc1)NC(=O)c1csc([C@@H](C[C@H](C(C)C)N(C)C(=O)[C@H](C)NC(=O)[C@H]2CCCCN2C)OC(C)=O)n1	14.1	> 25	> 25			20.2	> 25	> 25	1.35	> 25	1.14	1.24	2.08			1.12	9.48	0.384	1.87	0.774
COc1ccc2nc(NC(=O)C(=O)C(C#N)c3ccc(Cl)c(Cl)c3)sc2c1 (stereo unspecified)	> 100	> 100	> 100	> 100	> 100	> 100	> 100	> 100	> 100											
O=C1NC(=O)C2C1N(Cc1ccccc1)C(=O)N2Cc1ccccc1 (stereo unspecified)	> 100	> 100	> 100	> 100	> 100	> 100	> 100	> 100	> 100											
O=C1OC(CN2CCOCC2)CN1/N=C/c1ccc([N+](=O)[O-])o1 (stereo unspecified)		84.8	92	> 100	> 100	> 100	> 100	39.3	72.3	> 100										
CC1=CC(=O)N(c2c(C)cccc2Cl)C(C)N1 (stereo unspecified)	> 100	> 100	> 100	> 100	> 100	> 100	> 100	> 100	> 100											
O=[N+]([O-])c1ccc(Cl)cc1C1SCc2nc3ccccc3n21 (stereo unspecified)	54	> 100	> 100	> 100	27.4	> 100		> 100	80.1											
COc1ccc2c(c1OC)C(=O)c1cnccc1C2=O		> 100	> 100	> 100	> 100	> 100	> 100	> 100	> 100											
O=C(CC1C(=O)Nc2ccccc2S1=O)Nc1ccc(Cl)cc1 (stereo unspecified)		> 100	> 100	> 100	> 100	> 100	> 100		> 100											
O=C1C2Nc3ccccc3SC2C(=O)N1c1ccccc1C(F)(F)F (stereo unspecified)		> 100	78.2	28.1	> 100		> 100	> 100	56.3											
